ChEMBL document CHEMBL2375313, “Synthesis, in vitro antitumor evaluation and DNA-binding study of novel tetrahydroquinolines and some derived tricyclic and tetracyclic ring systems” (Eur J Med Chem, 2013)

Tests used:
Assay type in all cases: functional
[1] = Cytotoxicity against human colon cancer cells after 48 hrs by sulphorhodamine B assay; conditions: Cancer cell lines
[2] = Cytotoxicity against human renal cancer cells after 48 hrs by sulphorhodamine B assay; conditions: Cancer cell lines
[3] = Cytotoxicity against human ovarian cancer cells after 48 hrs by sulphorhodamine B assay; conditions: Cancer cell lines
[4] = Cytotoxicity against human prostate cancer cells after 48 hrs by sulphorhodamine B assay; conditions: Cancer cell lines
[5] = Cytotoxicity against human CNS cancer cells after 48 hrs by sulphorhodamine B assay; conditions: Cancer cell lines
[6] = Cytotoxicity against human non-small cell lung cancer cells after 48 hrs by sulphorhodamine B assay; conditions: Cancer cell lines
[7] = Cytotoxicity against human breast cancer cells after 48 hrs by sulphorhodamine B assay; conditions: Cancer cell lines
[8] = Cytotoxicity against human melanoma cells after 48 hrs by sulphorhodamine B assay; conditions: Melanoma cell
[9] = Cytotoxicity against human leukemia cells after 48 hrs by sulphorhodamine B assay; conditions: Leukemia cell
[10] = read-out: LC50 (the source's name)

`O=c1[nH]cc(F)c(=O)[nH]1` [FLUOROURACIL] gave a GI50 [1] of 8.4 µM, a TGI [1] greater than 100 µM and a CC50 [1, 10] greater than 100 µM. The GI50 [2] was 45.6 µM, the TGI [2] was greater than 100 µM and the GI50 [3] was 61.4 µM. The TGI [3] was greater than 100 µM, the CC50 [3, 10] was greater than 100 µM and the GI50 [4] was 22.7 µM. The TGI [4] was greater than 100 µM, the TGI [5] was greater than 100 µM and the GI50 [6] was greater than 100 µM. It also gave a TGI [6] greater than 100 µM, a GI50 [7] of 76.4 µM and a TGI [7] greater than 100 µM. It also gave a GI50 [8] of 70.6 µM, a TGI [8] greater than 100 µM and a CC50 [8, 10] greater than 100 µM. For the same compound, the TGI [9] was greater than 100 µM.
